Like-named read-outs stand apart in the source and are kept apart here.

For series [1], the system named is Huh-7 cells. Put plainly: Global methylation, LINE-1 assay (pyrosequencing). In kind it is cell-based, human. The following applies: HG media, 25HC3S for 4 hours. Here is the method: Each sample, 2 was sent to […], Inc. (Hopkinton, MA) for analysis of global methylation bisulfite sequencing. The same samples, 6 μg, were sent to Novogene Co., Ltd (Tianjin, China) for analysis of whole genome bisulfite sequencing (WGBS). Total RNA was isolated using the Promega SV total RNA isolation system (Madison, WI) with DNase treatment. […] Real-time RT-PCR was performed using SYBR Green as the indicator on ABI 7500 Fast Real-Time PCR System (Applied Biosystems, Foster City, CA). Amplifications of β-actin or GAPDH were used as internal controls. Relative messenger RNA (mRNA) expression was quantified with the comparative cycle threshold (Ct) method using the primer set shown in Table 1.1 and was expressed as 2^-ΔΔct. […] PCR reaction and product purification were performed as per the manufacturer's protocol (GE Healthcare Life Sciences). The PCR products, 10 μl, were sequenced by Pyrosequencing on the PSQ96 HS System following the manufacturer's instructions (Pyrosequencing, Qiagen). The methylation status of each CpG site was determined individually as an artificial C/T SNP using QCpG software (Pyrosequencing, Qiagen). The methylation level at each CpG site was calculated as the percentage of the methylated alleles divided by the sum of all methylated and unmethylated alleles. The mean methylation level was calculated using methylation levels of all measured CpG sites within the targeted region of each gene. Each experiment included non-CpG cytosines as internal controls to detect incomplete bisulfite conversion of the input DNA. In addition, a series of unmethylated and methylated DNA were included as controls in each PCR assay. Furthermore, PCR bias testing was performed by mixing unmethylated control DNA with in vitro methylated DNA at different ratios (0%, 5%, 10%, 25%, 50%, 75%, and 100%), followed by bisulfite modification, PCR, and Pyro-sequencing analysis.

The nature of series [2]: Tissue distribution by quantitative whole body autoradiography, intravenous, pigmented animals. In kind it is in vivo, male Long Evans rats. The following applies: iv 10 mg/kg. Here is the method: (§1) Nine male Sprague Dawley rats (Group 1) were designated for the pharmacokinetic phase, 3 male Sprague Dawley rats (Group 2) for the excretion mass balance phase, and 7 male Sprague Dawley rats (Group 3) and 9 male Long Evans rats (Group 4) for the tissue distribution phase. All animals received a single intravenous dose of [^14C]-25HC3S at 10 mg/kg and a target radioactivity of 225 μCi/kg. Blood samples were collected from all Group 1 animals at approximately 0.083, 0.25, 0.5, 1, 2, 4, 8, 12, 24, 48, and 72 hours post-dose. Urine and feces were collected from all Group 2 animals periodically through 168 hours post-dose. […] Following blood collection, animals were euthanized by CO2 inhalation and carcasses frozen in a dry ice/hexane bath for processing by quantitative whole body autoradiography. Whole blood, plasma, urine, feces, cage rinse, and cage wash were analyzed for total radioactivity by liquid scintillation counting.

Series [3] in a line: Plasma pharmacokinetics of radioactivity, single intravenous dose. In kind it is in vivo, male Sprague Dawley rats. The following applies: single intravenous (bolus) dose 10 mg/kg; total radioactivity. Here is the method: as §1
Series [4] can be described thus: Tissue distribution by quantitative whole body autoradiography, intravenous. In kind it is in vivo, male Sprague Dawley rats. The following applies: iv 10 mg/kg. Here is the method:
as §1

Details of series [5]: species or system rats. The following applies: rat, in vivo, po, 75 mg/kg. Here is the method: The terminal elimination phase T1/2 was 27.3 hours.
For series [6], the system named is Huh-7 cells. In words: Real-time RT-PCR of key gene expression. In kind it is cell-based, human. The following applies: 6.25-50 μM, 1-8 hours. Here is the method: FIGS. 3A-3D. Expression of key genes related to signaling pathways. […] Key Genes and their targeting genes expression were determined by RT-PCR analysis. […] Each sample, 2 was sent to […], Inc. (Hopkinton, MA) for analysis of global methylation bisulfite sequencing. The same samples, 6 μg, were sent to Novogene Co., Ltd (Tianjin, China) for analysis of whole genome bisulfite sequencing (WGBS). Total RNA was isolated using the Promega SV total RNA isolation system (Madison, WI) with DNase treatment. […] Real-time RT-PCR was performed using SYBR Green as the indicator on ABI 7500 Fast Real-Time PCR System (Applied Biosystems, Foster City, CA). Amplifications of β-actin or GAPDH were used as internal controls. Relative messenger RNA (mRNA) expression was quantified with the comparative cycle threshold (Ct) method using the primer set shown in Table 1.1 and was expressed as 2^-ΔΔct.
In general terms: Real-time PCR tracks product formation cycle by cycle.

On the set-up of series [7]: species or system rats. The following applies: Sprague Dawley, rat, in vivo, po, 75 mg/kg.
Series [8] in a line: Excretion mass balance, single intravenous dose. In kind it is in vivo, male Sprague Dawley rats. The following applies: iv 10 mg/kg; over 168 hours. Here is the method:
as §1

Series [9] is described as follows: Metabolite profiling of plasma and feces after oral dose (radio-HPLC, HPLC/MS). Further details: species or system rats. The following applies: Sprague Dawley, rat, in vivo, 75 mg/kg. Here is the method: Radiolabeled components in plasma and feces extracts were profiled and identified using radio-high performance liquid chromatography (HPLC) and high performance liquid chromatography/mass spectrometry (HPLC/MS) methods.
Plasma pools were prepared for Group 1 (75 mg/kg, [14C]-25HC3S) samples collected at 2, 4, and 6 hours post-dose. […] One metabolite M29 was identified as 25-hydroxycholesterol with 37% ROI and a concentration of 1233 ng-equiv./g.
Feces pools were prepared for Group 2 (75 mg/kg, [^14C]-25HC3S) samples collected from 0 to 24, 24 to 48, 48 to 72, 72 to 96, 96 to 120, 120 to 144, and 144 to 168 hours post-dose. A total of eleven metabolites were identified. None of the metabolites were present at ≥5% of dose. Metabolites present at 2-5% of dose were M1(4.5% of total dose and 1%-69% ROI), M3 (4.6% of total dose and 1%-44% ROI), M4 (2.0% of total dose and 0%-10% ROI), M8 (3.1% of total dose and 1%-46% ROI), M29 (1.9% of total dose and 0%-2% ROI), and M30 (3.3% of total dose and 0%-5% ROI).

Consider `C[C@H](CCCC(C)(C)O)[C@H]1CC[C@H]2[C@@H]3CC=C4C[C@@H](OS(=O)(=O)O)CC[C@]4(C)[C@H]3CC[C@]12C` [25HC3S, 25-hydroxycholesterol-3-sulfate], for which, in the series on Huh-7 cells [1], the “Reduction of methylation (demethylation) at LINE-1 Pos1” value is −5%, the “Reduction of methylation (demethylation) at LINE-1 Pos3” value is on record as −10% and the “Reduction of methylation (demethylation) at LINE-1 Pos 4” value was −5.6%. Moreover, the “binding to pigmented or non-pigmented skin or the uveal tract” value in series [2] is recorded as “no difference”. Moreover, in [2] (first 168 hours post-dose), the “plasma or whole blood concentrations versus Sprague Dawley rats” value was “no substantial difference”. Moreover, the “mean plasma C0” value in series [3] is 25,900 ng-equiv./g. In addition, in [4], the “plasma:whole blood AUClast ratio” value is given as 0.79; the “tissue concentrations by 168 hours post-dose” value is “below quantitation limit in all tissues except adrenal gland, harderian gland, liver, and small intestine”. Further, the “tissue distribution of parent and/or metabolites” value in [4] (Group 3) is “broadly distributed and detected by quantitative whole body autoradiography in all tissues except the eye (lens)”. Also, in series [4] (calculated using AUClast), the “tissue:plasma ratio, liver” value is recorded as 11.4 and the “tissue:plasma ratio, small intestine (wall)” value is listed as 7.44. Besides, the AUClast in liver in series [4] (derived radioactivity) is ≤ 364,000 h·ng/g. Also, the “plasma Cmax” value in series [5] was determined as 3800 ng equiv./g. In the series on Huh-7 cells [6], the “decrease of FAS gene expression” value is reported as about 90%, the “decrease of HMGR gene expression” value is reported as about 90%, the “increase of CREB5 expression” value is listed as “up to 20 fold” and the “increase of DUSP8 expression” value is on record as 5 fold. Also, in the series with Huh-7 cells [6], the “increase of PGC1A expression” value was found to be 12 fold. In addition, in series [7], the “dose recovered in urine, feces, and cage rinse” value was “approximately 94.5 % of the dose”. Moreover, in [8], the “dose recovered in urine, feces, and cage rinse” value was “approximately 100.2 % of the dose”; the “recovered radioactivity in feces” value worked out at 83.0%. Besides, in series [9], the ROI in feces is given as 0-88% and the amount in feces is 71.1 % of total dose.

Values taken from patent US20230372361A1, “USE OF OXYGENATED CHOLESTEROL SULFATES FOR TREATING INFLAMMATORY CONDITIONS” (Durect Corporation, priority 2020, published 2023).
